The record followed here is patent US6258806A, “Amine derivatives of oxo- and hydroxy- substituted hydrocarbons” (Narhex Limited, priority 1992, dated 2001).

Test [1] deals with Human Immunodeficiency Virus type 1 (HIV) strain #237228 in MT2 cells. Description: Anti-HIV-1 antiviral activity in acutely infected MT2 cells (CPE and RT activity). The test is classed as cell-based. The conditions noted are these: for IC80: Human immunodeficiency virus 1, printed in the IC100 column with footnote (b) IC80; for antiviral index (Al), MT2 cells: only non-toxic concentrations used, 8640 min; for IC100: Human immunodeficiency virus 1, 144 h, acute HIV-1 infection, day 6, concentration at which virus replication is inhibited (CPE negative or ±, >95% inhibition of RT activity). The text has this: (§1) The antiviral activity of representative compounds of the present invention has been determined at the Antivirals Laboratory, Fairfield Hospital, Fairfield, Victoria, Australia. In this test a stock solution of each compound was made in DMSO, then diluted in culture medium (RF 10) to 2× the final concentration required for test. The final concentration of DMSO was 1% or below. Approximately 250,000 continuous lymphocytes of human origin (MT2 cells) or 750,000 human peripheral blood lymphocytes (PBLs) were exposed to dilutions of each test compound, then immediately infected with Human Immunodeficiency Virus type 1 (HIV) strain #237228 (a clinical isolate obtained from a human source). The infectivity titers were expressed as tissue culture 50% infective dose (TCID50 per ml) with 1 TCID50 corresponding to the amount of supernatant required to infect 50% of the replicate cell cultures. The 250 and 200 TCID50 were used for MT2 and PBL cells respectively. The cell/drug/virus mixture was then incubated at 37° C./CO2 in a 24-well microtitre plate. Fresh amounts of the appropriate dilution of each drug were added to both MT2 and PBL cultures at day 3. At day 6, the extent of HIV-specific cytopathic effects (CPE) associated with each concentration of test compound in each of the cultures was rated according to the following scale:
(§2) 4+: 75-100% of cells showing 3+: good CPE
(§3) 3+: 50-75% of cells showing 2+: moderate CPE
(§4) 2+: 25-50% of cells showing 1+: low CPE
(§5) 1+: 5-25% of cells showing trace: minimal CPE
(§6) +/-: less than 5% CPE Negative: no CPE
(§7) The activity of the compounds at each concentration was also assessed by their ability to inhibit viron-associated reverse transcriptase (RT) activity in the culture supernates. At the time of rating of CPE, supernatant fluids from each well were removed and RT activity measured using a standard assay. CPE ratings of negative, ± (in MT2 cells) or trace (in PBLs), with greater than 95% inhibition of RT activity, was considered to represent IC100 (the concentration of compound at which the virus replication is inhibited). Control cultures included in each test were:
(§8) (a) HIV-infected cells in the absence of test compound.
(§9) (b) Uninfected cells in the absence of tested compound.
(§10) (c) Cell toxicity control consisting of uninfected cells treated with dilutions of test compound.
(§11) At the conclusion of each experiment, viable cells in these cultures, as determined by tryptan blue exclusion, were compared with the counts obtained in (b), above.

Test [2] has as its system Human Immunodeficiency Virus type 1 (HIV) strain #237228 in human peripheral blood lymphocytes (PBLs). Description: Anti-HIV-1 antiviral activity in acutely infected peripheral blood lymphocytes (CPE and RT activity). Particulars: for IC100: Human immunodeficiency virus 1, 144 h, PBL cells, acute HIV-1 infection, day 6, concentration at which virus replication is inhibited (CPE negative or trace, >95% inhibition of RT activity); for antiviral index (Al), PBL cells: only non-toxic concentrations used, 8640 min. The test is classed as cell-based, Human Immunodeficiency Virus type 1 (HIV); human cells.
Excerpt: as §1, §2, §3, §4, §5, §6, §7, §8, §9, §10, §11

Consider `CC(C)(C)OC(=O)N1CC2CCCCC2CN1C[C@H](O)[C@H](Cc1ccccc1)NC(=O)[C@H](CC(N)=O)NC(=O)c1ccc2ccccc2n1` (single isomer, unassigned) [Compound 2b.A], for which, in test [1], the 80% effect level (IC80) was put at 10 nM and the “antiviral index (Al), MT2 cells” value came out at 100. Also, in test [2], the IC100 turned out to be 0.01 µM and the “antiviral index (Al), PBL cells” value is 1000.

For `CC(C)(C)OC(=O)N1CC2CCCCC2CN1CC(O)[C@H](Cc1ccccc1)NC(=O)OCc1ccccc1` (stereo partly drawn) [Compound 1, cis-1,6-3-t-Butoxycarbonyl-4-[(2RS,3S)-2-hydroxy-3-(phenylmethoxycarbonyl)amino-4-phenylbutyl]-3,4-diaza-bicyclo-[4.4.0]decane], in test [1] (Human immunodeficiency virus 1, printed in the IC100 column with footnote (a) IC50), the IC50 (in general, the concentration that inhibits the measured activity by half) stood at 10000 nM. Also, in test [1], the “antiviral index (Al), MT2 cells” value came to 1.

With `CC(C)(C)OC(=O)N1CC2CCCCC2CN1C[C@H](O)[C@H](Cc1ccccc1)NC(=O)[C@H](CC(N)=O)NC(=O)c1ccc2ccccc2n1` (stereo partly drawn) [Compound 2b, cis-1,6-3-t-Butoxycarbonyl-4-[(2S, 3S)-2-hydroxy-3-(N-quinaldyl-L-asparaginyl)amino-4-phenylbutyl]-3,4-diaza-bicyclo[4.4.0]decane], in test [1], the IC100 came to 0.1 µM and the “antiviral index (Al), MT2 cells” value came to 50. In test [2], the IC100 came to 0.1 µM and the “antiviral index (Al), PBL cells” value is on record as 100.

As for `CC(C)[C@H](NC(=O)c1ccc2ccccc2n1)C(=O)N[C@@H](Cc1ccccc1)C(O)CN1CC2CCCCC2CN1C(=O)OC(C)(C)C` (stereo partly shown) [Compound 3], in test [1], the IC100 was found to be 1 µM and the “antiviral index (Al), MT2 cells” value was found to be 5. In test [2], the IC100 worked out at 1 µM and the “antiviral index (Al), PBL cells” value was 5.

As to `CC(C)(C)OC(=O)N1CC2CCCCC2CN1CC(O)[C@H](Cc1ccccc1)NC(=O)[C@H](CCC(N)=O)NC(=O)c1ccc2ccccc2n1` (stereo partly drawn) [Compound 4, cis-1,6-3-t-Butoxycarbonyl-4-[(2RS,3S)-2-hydroxy-3-(N-quinaldyl-L-glutaminyl)amino-4-phenylbutyl]-3,4-diaza-bicyclo[4.4.0]decane], in test [1], the IC100 worked out at 1 µM and the “antiviral index (Al), MT2 cells” value worked out at 10. For the same molecule, in test [2], the IC100 was 1 µM and the “antiviral index (Al), PBL cells” value is 10.

With `C[C@@H](O)[C@H](NC(=O)c1ccc2ccccc2n1)C(=O)N[C@@H](Cc1ccccc1)C(O)CN1CC2CCCCC2CN1C(=O)OC(C)(C)C` (stereo partly drawn) [Compound 5, cis-1,6-3-t-Butoxycarbonyl-4-[(2RS,3S)-2-hydroxy-3-(N-quinaldyl-L-threonyl)amino-4-phenylbutyl]-3,4-diaza-bicyclo[4.4.0]decane], in test [1], the IC100 is 1 µM and the “antiviral index (Al), MT2 cells” value is less than 10. Also, in test [2], the IC100 worked out at 1 µM and the “antiviral index (Al), PBL cells” value is reported as less than 10.

With `CC(C)[C@H](NC(=O)OCc1ccccn1)C(=O)N[C@@H](Cc1ccccc1)C(O)CN1CC2CCCCC2CN1C(=O)OC(C)(C)C` (stereo partly drawn) [Compound 6, cis-1,6-3-t-Butoxycarbonyl-4-[(2RS,3S)-2-hydroxy-3-[N-(2-pyridyl)methoxycarbonyl-L-valyl]amino-4-phenylbutyl]-3,4-diaza-bicyclo[4.4.0]decane], in test [1], the IC100 was found to be 1 µM and the “antiviral index (Al), MT2 cells” value is reported as less than 5. For the same molecule, in test [2], the IC100 turned out to be 1 µM and the “antiviral index (Al), PBL cells” value was less than 5.

Turning to `CC(C)[C@H](NC(=O)c1ccc2ccccc2n1)C(=O)N[C@@H](Cc1ccccc1)[C@H](O)CN(NC(=O)OC(C)(C)C)C(C)C` [Compound 9, t-Butyl 3-Isopropyl-3-[(2R,3S)-2-hydroxy-3-(N-quinaldyl-L-valyl)amino-4-phenylbutyl]carbazate], in test [1], the IC100 came to 5 µM and the “antiviral index (Al), MT2 cells” value was 4.

With `CC(CCc1ccccc1)N(C[C@@H](O)[C@H](Cc1ccccc1)NC(=O)[C@H](CC(N)=O)NC(=O)c1ccc2ccccc2n1)NC(=O)OC(C)(C)C` (stereo partly shown) [Compound 12], in test [1], the IC80 – broadly, the concentration at which the effect reaches the 80% level – is 1000 nM and the “antiviral index (Al), MT2 cells” value amounted to 10.

As for `CC(C)N(C[C@H](O)[C@H](Cc1ccccc1)NC(=O)[C@H](CC(N)=O)NC(=O)c1ccc2ccccc2n1)NC(=O)C(C)(C)C` [Compound 13, 1-Trimethylacetyl-2-[(2S,3S)-2-hydroxy-3-(N-quinaldyl-L-asparaginyl)amino-4-phenylbutyl]-2-isopropylhydrazine], in test [1], the IC100 is 1 µM and the “antiviral index (Al), MT2 cells” value worked out at 50. Also, in test [2], the IC100 is 1 µM and the “antiviral index (Al), PBL cells” value was more than 50.

Turning to `CC(C)N(C[C@H](O)[C@H](Cc1ccccc1)NC(=O)[C@H](CC(N)=O)NC(=O)c1ccc2ccccc2n1)NC(=O)NC(C)(C)C` [Compound 14, 1-(t-Butylamino)carbonyl-2-[(2S,3S)-2-hydroxy-3-(N-quinaldyl-L-asparaginyl)amino-4-phenylbutyl]-2-isopropylhydrazine], in test [1], the IC100 amounted to 1 µM and the “antiviral index (Al), MT2 cells” value was 50. In test [2], the IC100 amounted to 1 µM and the “antiviral index (Al), PBL cells” value is on record as more than 50.

Regarding `CC(C)N(C[C@H](O)[C@H](Cc1ccccc1)NC(=O)[C@H](CC(N)=O)NC(=O)c1ccccn1)NC(=O)OC(C)(C)C` [Compound 15, t-Butyl 3-isopropyl-3-[(2S,3S)-2-hydroxy-3-(N-picolinyl-L-asparaginyl)amino-4-phenylbutyl]carbazate], in test [1], the IC100 is 1 µM and the “antiviral index (Al), MT2 cells” value amounted to 100. Also, in test [2], the IC100 came out at 1 µM and the “antiviral index (Al), PBL cells” value is listed as 200.

In the case of `CC(C)(C)OC(=O)NN(Cc1ccccc1)C[C@H](O)[C@H](Cc1ccccc1)NC(=O)[C@H](CC(N)=O)NC(=O)c1ccc2ccccc2n1` [Compound 16, t-Butyl 3-benzyl-3-[(2S,3S)-2-hydroxy-3-(N-quinaldyl-L-asparaginyl)amino-4-phenylbuty]carbazate], in test [1], the IC100 is 1 µM and the “antiviral index (Al), MT2 cells” value came out at 100. Moreover, in test [2], the IC100 turned out to be 1 µM and the “antiviral index (Al), PBL cells” value was 1.

Regarding `CC(C)N(C[C@H](O)[C@H](Cc1ccccc1)NC(=O)[C@H](CC(N)=O)NC(=O)c1ccccc1)NC(=O)OC(C)(C)C` [Compound 18, t-Butyl 3-isopropyl-3-[(2S,3S)-2-hydroxy-3-(N-benzoyl-L-asparaginyl)amino-4-phenylbutyl]carbazate], in test [1], the IC100 was 1 µM and the “antiviral index (Al), MT2 cells” value was found to be 10. Also, in test [2], the IC100 turned out to be 1 µM and the “antiviral index (Al), PBL cells” value is more than 150.

Consider `CC(C)(C)OC(=O)N1CCCCN1C[C@H](O)[C@H](Cc1ccccc1)NC(=O)[C@H](CC(N)=O)NC(=O)c1ccc2ccccc2n1` [Compound 19, 1-t-Butyloxycarbonyl-2-[(2S,3S)-2-hydroxy-3-(N-quinaldyl-L-asparaginyl)amino-4-phenylbutyl]hexahydropyridazine], for which, in test [1], the IC100 was found to be 1 µM and the “antiviral index (Al), MT2 cells” value is recorded as 10. In test [2], the IC100 came to 0.1 µM and the “antiviral index (Al), PBL cells” value came to 200.

On to `CC(C)(C)OC(=O)N1CC2CCCCC2CN1C[C@H](O)[C@H](Cc1ccccc1)NC(=O)[C@H](CC#N)NC(=O)c1ccc2ccccc2n1` (stereo partly drawn) [Compound 20, cis-1,6-3-t-Butoxycarbonyl-4-[(2S,3S)-2-hydroxy-3-(N-quinaldyl-3-cyano-L-alanyl)amimo-4-phenylbutyl]-3,4-diaza-bicyclo[4.4.0]decane], for which, in test [1], the IC100 stood at 1 µM and the “antiviral index (Al), MT2 cells” value stood at 10. Besides, in test [2], the IC100 was 1 µM and the “antiviral index (Al), PBL cells” value was found to be 10.
